The text below walks through data of patent US8338472B2, “Hexahydrocyclopentyl[F]indazole carboxamides and derivatives thereof as selective glucocorticoid receptor modulators” (Merck Sharp & Dohme Corp., priority 2008, dated 2012).

Read-outs that look alike come from different tables or passages of the source. Bounds are passed on as bounds.

The target of one experiment is T1, Glucocorticoid Receptor (Homo sapiens, UniProt P04150).
T1 construct: These cells express large amount of the GR and are very responsive to GC treatment; endogenous in cells; host or cells: A549 cells transiently transfected with the MMTV-LUC reporter
T1 sequence (P04150 1-777): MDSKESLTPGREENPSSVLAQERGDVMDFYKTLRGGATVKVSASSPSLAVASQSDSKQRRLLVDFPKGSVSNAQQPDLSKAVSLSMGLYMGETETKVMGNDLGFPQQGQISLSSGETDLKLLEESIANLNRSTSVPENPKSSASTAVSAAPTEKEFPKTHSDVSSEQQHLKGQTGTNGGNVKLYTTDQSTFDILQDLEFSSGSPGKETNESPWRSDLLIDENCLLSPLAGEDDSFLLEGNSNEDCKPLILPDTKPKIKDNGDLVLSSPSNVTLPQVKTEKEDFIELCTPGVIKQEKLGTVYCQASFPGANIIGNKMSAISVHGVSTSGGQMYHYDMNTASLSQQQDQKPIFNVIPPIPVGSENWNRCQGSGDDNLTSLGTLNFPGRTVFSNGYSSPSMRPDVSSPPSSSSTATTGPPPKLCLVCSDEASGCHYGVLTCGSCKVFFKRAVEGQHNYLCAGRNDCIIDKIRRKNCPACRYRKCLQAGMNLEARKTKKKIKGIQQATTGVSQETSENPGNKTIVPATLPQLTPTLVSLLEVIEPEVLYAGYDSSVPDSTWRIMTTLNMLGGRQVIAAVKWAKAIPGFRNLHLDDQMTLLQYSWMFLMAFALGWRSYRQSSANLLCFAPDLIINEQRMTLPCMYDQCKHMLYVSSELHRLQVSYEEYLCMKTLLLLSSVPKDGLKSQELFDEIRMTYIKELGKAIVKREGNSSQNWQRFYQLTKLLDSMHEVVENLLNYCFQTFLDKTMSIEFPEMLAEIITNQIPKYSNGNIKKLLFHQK
As to the kind of experiment: Trans-Activation Modulation of Glucocorticoid Receptor (GRAMMER), MMTV-LUC reporter gene in A549 cells. It counts as cell-based. To be noted: Table 1; for Emax: A549, A549 cells, read-out: Transactivation A549 Cells GRAMMER Emax; for EC50: inflection point, read-out: Transactivation A549 Cells GRAMMER IP. From the text:
Trans-Activation Modulation of Glucocorticoid Receptor (GRAMMER)
This assay assesses the ability of test compounds to control transcription from the MMTV-LUC reporter gene in lung adenocarcinoma A549 cells or MDA-MB-453 cells, a human breast cancer cell line that naturally expresses the human GR. The assay measures induction of a modified MMTV LTR/promoter linked to the LUC reporter gene.
The routine transient assay consists of plating 7,000-25,000 cells/well of a white, clear-bottom 96-well plate. Alternatively, 384-well plates can be used at a cell concentration of 10,000/well. The media that the cells are plated in is “exponential growth medium” which consists of phenol red-free RPMI1640 containing 10% FBS, 4 mM L-glutamine, 20 mM HEPES, 10 ug/mL human insulin, and 20 ug/mL gentamicin. Incubator conditions are 37° C. and 5% CO2. The transfection is done in batch mode. The cells are trypsinized and counted to the right cell number in the proper amount of fresh media. It is then gently mixed with the FuGene6/DNA mix and plated onto the 96 or 384-well plate, all the wells receive 100 uL or 40 uL, respectively, of medium+lipid/DNA complex then incubated 37° C. overnight. The transfection cocktail consists of serum-free OptiMEM, FuGene6 reagent and DNA. The manufacturer's (Roche Biochemical) protocol for cocktail setup is as follows: The lipid to DNA ratio is approximately 2.5:1 and the incubation time is 20 min at room temperature. Sixteen to 24 hours after transfection, the cells are treated with dexamethasone to a final concentration of 10 nM as well as the compound of interest, such that final DMSO (vehicle) concentration is equal to or less than 1%. Each plate also contains samples that are treated with 10 nM dexamethasone alone, which is used as the 100% activity control. The cells are exposed to the compounds for 24 hours. After 24 hours, the cells are lysed by a Promega cell culture lysis buffer for approximately 30 min and then the luciferase activity in the extracts is assayed in the 96-well format luminometer. In 384-well format, Steady-Glo (Promega) or Steady-Lite (PerkinElmer) can be used by adding an equal volume of reagent to the media present in each well. Activity induced by 10 nM dexamethasone alone is set at 100% activity. Antagonist activity is calculated by determining the decrease in dexamethasone-induced activity in response to compound treatment relative to samples that were treated with dexamethasone alone. […] This transactivation assay can be performed in an agonist and antagonist mode to identify these different activities.
Activity of test compounds is calculated as the Emax relative to the activity obtained with 300 nM dexamethasone. Activity of test compounds is calculated as the Emax relative to the activity obtained with 300 nM DEX. […] The action of compounds is also tested in an antagonist mode (Anti-GRAMMER) in which the cells are treated with medium containing an agonist such as 10 nM DEX and the ability to agents to inhibit the activation by an agonist is measured.

The target in the next experiment is T2, human GR (Homo sapiens, UniProt P04150).
T2 construct: U937 cells contain an endogenous glucocorticoid receptor (GR); endogenous in cells; host or cells: U937 cells stably transfected with the TNF-alpha promoter/beta-lactamase reporter
T2 sequence (P04150 1-777): T1 sequence (P04150 1-777)
As to the kind of experiment: Transrepression Assay (GITAR), TNFα-β-lactamase reporter gene in U937 cells. It counts as cell-based. The settings on record: for GITAR Greater than by GRAMMER % SEP: GITAR Emax minus GRAMMER Emax; for EC50: inflection point, read-out: Transrepression U937 Cells GITAR IP. From the text:
Transrepression Assay (GITAR)
This assay assesses the ability of test compounds to control transcription from the TNFα-β-lactamase reporter gene in U937 cells, a human myelomonocytic leukemia cell line that naturally expresses the human GR. The assay measures compound dependent-repression of the TNFa promoter linked to a reporter gene.
The human U937 cells that had been stablely transfected with the TNF-α promoter driving β-lactamase are used for this assay. U937 cells contain an endogenous glucocorticoid receptor (GR). Cells are maintained in RPMI 1640 Growth medium (Gibco Cat#11875-093) containing 25 mM HEPES, 10% FBS, 2 mM L-Glutamine, 1 mM Sodium pyruvate, 25 μg/ml Gentamicin (Gibco Cat#15710-064), 1:1000 2-Mercaptoethanol (Gibco Cat#21985-023) and 0.8 mg/ml G418 (Gibco Cat#10131-027). The density of the cells in the flask needs to be about 1×10^6−3×10^6/ml at the time of harvest. Usually, the cells are split to 1.2˜1.4×10^5/ml (1:10) 3 days prior to the assay. 50,000 cells/well are plated in 96 well black-walled plates the day of assay. Test compounds are added 10 pt/well, and cells are incubated at 37° C. for 30-45 min. For assaying compounds, first dilute 1:10 in DMSO to make 1 mM, then further dilute 1:100 in medium to make 10× stock prior to adding to the cells. Add 50 ng/ml PMA (Sigma, cat# P8139) 10 μL/well to a final concentration 5 ng/ml, and 1 μg/ml LPS (Sigma, cat# L4130) 10 μL/well to a final concentration 100 ng/ml. Incubate cells at 37° C. overnight for ˜18 hr. PMA is stored frozen as 100 μg/ml stock in DMSO. Dilute 1:10 in DMSO for a working stock of 10 μg/ml and store at −20C. For assaying, dilute the […] working stock 1:200 in medium to make a 10× solution (50 ng/ml). Store frozen LPS at 1 mg/ml in PBS, dilute 1:1000 in medium to make 10× (1 μg/ml) for the assay. Add 6× loading buffer (CCF2−AM) 20 μL/well, and incubate at room temperature for 70-90 min. […] The activity repressed by 100 nM dexamethasone alone is set as 100% activity.

Experiment [1] has as its target T3, glucocorticoid receptor (GR) (Homo sapiens, UniProt P04150).
T3 sequence (P04150 1-777): T1 sequence (P04150 1-777)
As to the kind of experiment: Ligand binding assay (GR BIND), 3H-dexamethasone displacement in MDA-MB-453 cell lysate. The settings on record: GR BIND Ki, Table 1.
Procedure: Binding Buffer: TEGM (10 mM Tris-HCl, 1 mM EDTA, 10% glycerol, 1 mM beta-mecaptoethanol, 10 mM Sodium Molybdate, pH 7.2)
50% HAP Slurry: Calbiochem Hydroxylapatite, Fast Flow, in 10 mM Tris, pH 8.0 and 1 mM EDTA.
Wash Buffer: 40 mM Tris, pH7.5, 100 mM KCl, 1 mM EDTA and 1 mM EGTA.
Dexmethasone-methyl-^3H, (DEX*); (Amersham cat# TRK645)
Dexamethasone(DEX) (Sigma, cat# D1756):
The cell pellet is washed twice with TEGM (10 mM Tris-HCl, 1 mM EDTA, 10% glycerol, 1 mM beta-mercaptoethanol, 10 mM Sodium Molybdate, pH 7.2). After the final wash, the cells are resuspended in TEGM at a concentration of 10^7 cells/mL. The cell suspension is snap frozen in liquid nitrogen or ethanol/dry ice bath and transferred to −80° C. freezer on dry ice. Before setting up the binding assay, the frozen samples are left on ice-water to just thaw (˜1 hr). Then the samples are centrifuged at 12,500 g to 20,000 g for 30 min at 4° C. The supernatant is used to set-up assay right away. If using 50 μL of supernatant, the test compound can be prepared in 50 μL of the TEGM buffer.
Procedure for Multiple Compound Screening
1×TEGM buffer is prepared, and the isotope-containing assay mixture is prepared in the following order: EtOH (2% final concentration in reaction), ^3H-DEX (Amersham Biosciences) and 1×TEGM. [e.g. For 100 samples, 200 μL (100×2) of EtOH+4.25 μL of 1:10 ^3H-Dex stock+2300 μL (100×23) 1×TEGM]. The compound is serially diluted, e.g., if starting final conc. is 1 μM, and the compound is in 25 μL of solution, for duplicate samples, 75 μL of 4×1 μM solution is made and 3 μL of 100 μM is added to 72 μL of buffer, and 1:5 serial dilution.
25 μL of ^3H-DEX (6 nM) trace and 25 μL compound solution are first mixed together, followed by addition of 50 μL receptor solution. The reaction is gently mixed, spun briefly at about 200 rpm and incubated at 4° C. overnight. 100 μL of 50% HAP slurry is prepared and added to the incubated reaction which is then vortexed and incubated on ice for 5 to 10 minutes. The reaction mixture is vortexed twice more to resuspend HAP while incubating reaction. The samples in 96-well format are then washed in wash buffer using The FilterMate™ Universal Harvester plate washer (Packard). The washing process transfers HAP pellet containing ligand-bound expressed receptor to Unifilter-96 GF/B filter plate (Packard). The HAP pellet on the filter plate is incubated with 50 μL of MICROSCINT (Packard) scintillint for 30 minutes before being counted on the TopCount microscintillation counter (Packard). IC50s are calculated using DEX as a reference.

Where [2] appears, read: Emax relative to 300 nM dexamethasone.
Setting [3] is: U-937, U937 cells, activity repressed by 100 nM dexamethasone = 100%, Table 1, read-out: Transrepression U937 Cells GITAR Emax.
Where [4] appears, read: U-937, text statement, 100 nM dexamethasone = 100%, read-out: maximal activity in the transrepression assay (GITAR).

On to `CCCN(CC)C(=O)[C@H]1CCC2=Cc3c(cnn3-c3ccc(F)cc3)C[C@@]21C` [Compound 4, (4αR,5S)-N-ethyl-1-(4-fluorophenyl)-4α-methyl-N-propyl-1,4,4α,5,6,7-hexahydrocyclopenta[f]indazole-5-carboxamide], for which the results for the Emax at Glucocorticoid Receptor (setting [2]), on human GR (setting [3]) and at human GR (setting [4]) were 19.2%, 21.5% and > 5%, respectively. Moreover, the EC50 on Glucocorticoid Receptor (A549 cells) was determined as 909 nM; on human GR (U937 cells, Table 1) it was 1000 nM. Further, the “GITAR Greater than by GRAMMER % SEP” value at human GR (Table 1) turned out to be 2.3%. Moreover, in experiment [1], the Ki was determined as 2.5 nM.

In the case of `C[C@]12Cc3cnn(-c4ccc(F)cc4)c3C=C1CC[C@@H]2C(=O)N(CCO)Cc1csc2ccc(Cl)cc12` [Compound 31, (4αR,5S)-N-[(5-chloro-1-benzothien-3-yl)methyl]-1-(4-fluorophenyl)-N-(2-hydroxyethyl)-4α-methyl-1,4,4α,5,6,7-hexahydrocyclopenta[f]indazole-5-carboxamide], the Emax at Glucocorticoid Receptor (setting [2]) is 2.6%; on human GR (setting [3]) it was 15.5%; on human GR (setting [4]) it was > 5%. The EC50 at Glucocorticoid Receptor (A549 cells) is 359 nM; at human GR (U937 cells, Table 1), 1230 nM. Besides, the “GITAR Greater than by GRAMMER % SEP” value at human GR (Table 1) turned out to be 12.9%. Also, in experiment [1], the Ki was 7.9 nM.

Regarding `CN(Cc1cccc(C(F)(F)F)c1)C(=O)[C@H]1CCC2=Cc3c(cnn3-c3ccc(F)cc3)C[C@@]21C` [Compound 46, (4αR,5S)-1-(4-fluorophenyl)-N,4α-dimethyl-N-[3-(trifluoromethyl)benzyl]-1,4,4α,5 ,6,7-hexahydrocyclopenta[f]indazole-5-carboxamide], the Emax on Glucocorticoid Receptor (setting [2]) is 2.6%; on human GR (setting [3]), 15.3%; on human GR (setting [4]), > 5%. Further, the EC50 at Glucocorticoid Receptor (A549 cells) was 2410 nM; at human GR (U937 cells, Table 1), 87.4 nM. For the same compound, at human GR (Table 1), the “GITAR Greater than by GRAMMER % SEP” value is 12.7%. For the same compound, the Ki in experiment [1] is 17.6 nM.

For the compound `COCCN(Cc1ccc(OC)cc1)C(=O)[C@H]1CCC2=Cc3c(cnn3-c3ccc(F)cc3)C[C@@]21C` [Compound 45, (4αR,5S)-1-(4-fluorophenyl)-N-(4-methoxybenzyl)-N-(2-methoxyethyl)-4α-methyl-1,4,4α,5,6,7-hexahydrocyclopenta[f]indazole-5-carboxamide], the Emax at Glucocorticoid Receptor (setting [2]) was 2.2%; on human GR (setting [3]), 19.3%; at human GR (setting [4]), > 5%. Also, the EC50 was 2140 nM on Glucocorticoid Receptor (A549 cells) and 158 nM at human GR (U937 cells, Table 1). The “GITAR Greater than by GRAMMER % SEP” value on human GR (Table 1) is 17.1%. Moreover, the affinity in experiment [1], expressed as Ki, was 8.7 nM.

Consider `C[C@]12Cc3cnn(-c4ccc(F)cc4)c3C=C1CC[C@@H]2C(=O)NC(Cc1ccccc1)c1ccccc1` (stereo partly drawn) [Compound 2, (4αR,5S)-N-(1,2-diphenylethyl)-1-(4-fluorophenyl)-4α-methyl-1,4,4α,5,6,7-hexahydrocyclopenta[f]indazole-5-carboxamide], for which the Emax on Glucocorticoid Receptor (setting [2]) is 3.1%; on human GR (setting [3]), 27.6%; on human GR (setting [4]), > 5%. The EC50 at Glucocorticoid Receptor (A549 cells) amounted to 1120 nM; on human GR (U937 cells, Table 1), 3540 nM. In addition, the “GITAR Greater than by GRAMMER % SEP” value at human GR (Table 1) stood at 24.5%. In experiment [1], this compound returned a Ki of 12.7 nM.

As for `CCCN(CCC(F)(F)F)C(=O)[C@H]1CCC2=Cc3c(cnn3-c3ccc(F)cc3)C[C@@]21C` [Compound 88, (4αR,5S)-1-(4-fluorophenyl)-4α-methyl-N-propyl-N-(3,3,3-trifluoropropyl)-1,4,4α,5,6,7-hexahydrocyclopenta[f]indazole-5-carboxamide], the Emax at Glucocorticoid Receptor (setting [2]) is 68%; on human GR (setting [3]), 73.9%; at human GR (setting [4]) it was > 5%. The EC50 at Glucocorticoid Receptor (A549 cells) was 371 nM; at human GR (U937 cells, Table 1), 234 nM. For the same compound, at human GR (Table 1), the “GITAR Greater than by GRAMMER % SEP” value was determined as 5.9%. In experiment [1], this compound registered a Ki of 2.2 nM.

Turning to `C[C@]12Cc3cnn(-c4ccc(F)cc4)c3C=C1CC[C@@H]2C(=O)N(CCc1ccccc1F)CC(O)C(F)(F)F` (stereo partly drawn) [Compound 84, (4αR,5S)-1-(4-fluorophenyl)-N-[2(2-fluorophenyl)ethyl]-4α-methyl-N-(3,3,3-trifluoro-2-hydroxypropyl)-1,4,4α,5,6,7-hexahydrocyclopenta[f]indazole-5-carboxamide], the “Transactivation A549 Cells GRAMMER Emax” value on Glucocorticoid Receptor (A549 cells, Emax relative to 300 nM dexamethasone) stood at 43.7%. For the same compound, the EC50 was found to be 188 nM at Glucocorticoid Receptor (A549 cells) and 191 nM on human GR (U937 cells, Table 1). Also, the “GITAR Greater than by GRAMMER % SEP” value at human GR (Table 1) worked out at 25.7%. Moreover, the “Transrepression U937 Cells GITAR Emax” value at human GR (U937 cells, activity repressed by 100 nM dexamethasone = 100%, Table 1) is 69.4%. Further, the Emax at human GR (setting [4]) is > 5%. In experiment [1], this compound came in with an inhibitory constant (Ki) of 0.8 nM.
